This note sets out measurements from PubChem BioAssay (NCI).

Some test systems named below: SNB-78 CNS; XF 498 CNS; P388/ADR leukemia; SN12K1 renal; P388 leukemia; DMS 114 small cell lung; M19-MEL melanoma; RXF-631 renal; LXFL 529 NSCLC; DMS 273 small cell lung.
Holding throughout (experiment): NCI tumour cell line growth inhibition, 48 h

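Interpolation was linear, between the two tested concentrations surrounding the appropriate level; five concentrations were tested over 48 hours in 96-well plates. TGI is the concentration that stops growth completely.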

For `COc1cc(C2c3cc4c(cc3[C@@H](Nc3ccc(Oc5ccccc5)cc3)C3COC(=O)[C@H]23)OCO4)cc(OC)c1O` (stereo partly specified), the TGI in the test on SNB-78 CNS is > 100 µM; in the test on XF 498 CNS it was > 59.8 µM; with P388/ADR leukemia, 3.49 µM; in the test with SN12K1 renal, > 100 µM; with P388 leukemia, 1.88 µM; in the test on DMS 114 small cell lung, > 22.7 µM. For the same molecule, the TGI in the test with M19-MEL melanoma was > 100 µM.

On to `Nc1nnc(CCC(=O)Nc2cc(Cl)ccc2Cl)n1N`, for which the TGI in the test with RXF-631 renal, with SNB-78 CNS, with XF 498 CNS, in the test on LXFL 529 NSCLC, with DMS 273 small cell lung and with DMS 114 small cell lung was > 100 µM in each case. The TGI with M19-MEL melanoma is > 100 µM.

On to `CCOCC(=O)N(C)c1cccc2c3c(n(C)c12)CCCCC3`, for which the TGI is > 100 µM in the test with SNB-78 CNS; > 100 µM with XF 498 CNS; > 100 µM in the test with P388/ADR leukemia; > 31.6 µM in the test on DMS 273 small cell lung; > 100 µM in the test with SN12K1 renal; > 100 µM in the test with P388 leukemia. Moreover, the TGI with DMS 114 small cell lung and in the test with M19-MEL melanoma was > 100 µM each time.

For `CC(=O)Nc1ccc(C(=O)NN2C(=O)C(Cl)C2c2cccc([N+](=O)[O-])c2)cc1` (stereo unspecified), the TGI in the test with LXFL 529 NSCLC and in the test on M19-MEL melanoma was > 100 µM throughout.

Consider `Cn1c2[n+](c3nc(N)[nH]c(=O)c31)C1OC(C2)C(O)C1O` (stereo unspecified), for which the TGI in the test on RXF-631 renal, with SNB-78 CNS, with XF 498 CNS, in the test on LXFL 529 NSCLC, in the test with DMS 273 small cell lung and with DMS 114 small cell lung was > 100 µM in each case. For the same molecule, the TGI with M19-MEL melanoma is > 100 µM.
